In ChEMBL document CHEMBL1154859, “Structure of aldehyde reductase in ternary complex with a 5-arylidene-2,4-thiazolidinedione aldose reductase inhibitor” (Eur J Med Chem, 2010) one finds Ratio IC50 and IC50 data, which are given here for one molecule.

Assay [1] in a line: Ratio of IC50 for pig ALR1 to IC50 for calf ALR2.
Assay [2] has as its target T1, Aldo-keto reductase family 1 member A1 (Sus scrofa, UniProt P50578).
T1 sequence (P50578 whole entry): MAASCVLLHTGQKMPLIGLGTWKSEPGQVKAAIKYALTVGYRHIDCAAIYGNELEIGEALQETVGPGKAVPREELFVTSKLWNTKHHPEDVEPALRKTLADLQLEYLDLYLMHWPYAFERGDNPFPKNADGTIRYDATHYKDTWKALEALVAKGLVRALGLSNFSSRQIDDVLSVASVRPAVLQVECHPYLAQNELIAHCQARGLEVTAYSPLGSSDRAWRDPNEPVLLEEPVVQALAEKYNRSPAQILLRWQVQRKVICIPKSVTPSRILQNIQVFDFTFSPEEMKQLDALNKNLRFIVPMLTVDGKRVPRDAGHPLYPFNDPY
The assay can be described thus: Inhibition of pig ALR1 assessed as decrease in NADPH absorbance by spectrophotometry.

The IC50 is the concentration needed to halve the response being measured. With `COc1ccc(/C=C2\SC(=O)N(CC(=O)O)C2=O)cc1O`, in assay [1], the Ratio IC50 came to 56. Moreover, in assay [2], the IC50 came out at 37 µM.
